We go through 18 molecules from patent US6528685B2 (Teva Pharmaceutical Industries, Ltd., priority 1994, dated 2003).

Series [1] relates to mice. The series is described as follows: Maximal electroshock (MES) model, mice. As to conditions: mice; for MICE MES ED50: intraperitoneal (i.p.) administration.
For series [2], the system named is mice. Briefly: Neurotoxicity in mice, rotorod ataxia test. As to conditions: mice i.p.; rotorod ataxia test. On the procedure: (§1) Neurotoxicity of the claimed agents was also assessed in mice (i.p. administration) by the rotorod ataxia test and/or in rats (p.o. administration) by positional sense test and gait stance test. […] The term quantitating the neurotoxicity is the medial neurological toxic dose (TD50), was determined in the above tests.

The test system of series [3] is rats. Briefly: Maximal electroshock (MES) model, rats. As to conditions: rats, oral (p.o.) administration; median effective dose.
In series [4] the test system is rats. Briefly: Neurotoxicity in rats, positional sense test and gait stance test. As to conditions: rats p.o.; positional sense test and gait stance test. On the procedure:
as §1

For another series, the system named is male ICR albino mice. Briefly: Hypobaric hypoxic model in mice, survival time. It counts as in vivo, mouse. On the procedure: Desiccator B was disconnected and allowed to equilibrate with room air whilst desiccator A was evacuated to a pressure of 100 mmHg. […] The survival time from the moment of induction of hypoxia to the time of cessation of respiration was recorded for each mouse for a maximum of 15 minutes after which time room air was reintroduced to desiccator B. Survivors were monitored for signs of lethargy or vitality.
Effect of drug treatment was assessed as the percent of the survival time of the drug treated group with respect to the saline injected or vehicle injected control group. Control groups were run twice, before and after each experimental group and consisted of 12-16 mice in groups of 4 mice. Each experimental group always consisted of 4 mice to ensure a constant residual volume of oxygen in all tests. The effect of each dose of test drug was determined in duplicate i.e. two groups of 4 mice.
All drugs were administered intra-peritoneally at the dose indicated one hour prior to exposure to hypoxia.

The next series deals with mongolian gerbils. The series is described as follows: Global brain ischemia in gerbils. The class given is in vivo, mongolian gerbil. The conditions noted are these: 3 injections, fraction of hippocampi protected from ischemia, 14 days post-ischemia. On the procedure: Male mongolian gerbils, aged 2.5-5 months, housed 4-8 in a cage, were supplied freely with food and water and maintained at 24° C. with a 12 hour day/night cycle. […] Each artery was clamped for 5 minutes with aneurysm clips to produce global brain ischemia. The anesthesia was discontinued upon clamping. After 5 minutes the clamps were removed and the wound closed with skin clips.
For treatment, the test compound or vehicle were injected intra-peritoneally (ip) in a volume of 50 microliters of solvent per 10 g body weight. The first injection was given two minutes after clamp removal, and thereafter daily for the next 2 post-operative days (total of 3 injections).
Seven groups each of 4-8 animals were compared:
V. Ischemia—Test compound treated, one sub-group per concentration tested,
VI. Ischemia and pentobarbital (40 mg/kg) as positive control).
Analysis of neuronal damage was performed 14 days post-ischemia by counting pyramidal neurons throughout the CA1 layer of the anterior hippocampus in […] thick (paraffin) coronal brain sections stained with hematoxylin and erosin.
Percent Protection values represent the fraction of hippocampi protected from ischemia in a group of animals treated with the stated dose of compound.

The mark [5] stands for this setting: 50 mg/kg ip one hour prior to hypoxia.
The mark [6] stands for this setting: 100 mg/kg ip one hour prior to hypoxia.

SMILES strings stand for the structures. Counter-ions that a name gives are not always drawn.

Regarding `NC1Cc2ccccc21` (centres unmarked) [Compound 27, 1-Aminobenzocyclobutene.HCl], the “MICE MES ED50” value in the series with mice [1] was below 100 mg/kg. In the series on mice [2], the “MICE TD50” value is above 100 mg/kg. Moreover, the “RATS MES 50” value with rats [3] was below 50 mg/kg. In the series on rats [4], the “RATS TD50” value was above 50 mg/kg.

As for `C[C@H]1Cc2ccccc2[C@H]1N` (racemic) [Compound 40, (rac)-cis-2-Methyl-1-aminoindan.HCl], the “MICE MES ED50” value with mice [1] was below 100 mg/kg. Moreover, in the series with mice [2], the “MICE TD50” value is listed as below 100 mg/kg. In addition, the “RATS MES 50” value with rats [3] is listed as below 50 mg/kg. For the same molecule, the “RATS TD50” value in the series with rats [4] is on record as above 50 mg/kg. The entries for the “PROTECTION % OF RESPECTIVE CONTROL” value in the series on male ICR albino mice (setting [5]) and in the series on male ICR albino mice (setting [6]) were 374 ± 190% and 569 ± 173%, respectively.

Consider `COc1ccc2c(c1)C(N)CC2` (racemic) [Compound 25, (rac)-6-Methoxy-1-aminoindan.HCl], for which, in the series with mice [1], the “MICE MES ED50” value is given as below 100 mg/kg. The “MICE TD50” value with mice [2] is above 100 mg/kg. The “RATS MES 50” value in the series on rats [3] was 50 mg/kg.

Consider `Cc1cc(C)c2c(c1)C(C)CC2N.Cl` (racemic) [Compound 41, (rac)-3,5,7-Trimethyl-1-aminoindan.HCl], for which the entries for the “PROTECTION % OF RESPECTIVE CONTROL” value in the series on male ICR albino mice (setting [5]) and with male ICR albino mice (setting [6]) were 187 ± 41% and 644 ± 316%, respectively.

For the molecule `COc1ccc2c(c1OC)CC[C@@H]2N.Cl` [Compound 30, (S)-4,5-Dimethoxy-1-aminoindan.HCl], the figures for the “PROTECTION % OF RESPECTIVE CONTROL” value with male ICR albino mice (setting [5]) and in the series on male ICR albino mice (setting [6]) were 265 ± 284% and 379 ± 202%, respectively.

`c1ccc2c(c1)CCC2NC1CCc2ccccc21` (racemic) [Compound 43, (rac)-N,N-Di-(1-indanyl)amine.HCl]: the “MICE MES ED50” value against mice [1] was below 100 mg/kg. Also, in the series with mice [2], the “MICE TD50” value was below 100 mg/kg. In addition, the “RATS MES 50” value with rats [3] was below 50 mg/kg. Further, the “RATS TD50” value in the series with rats [4] was above 50 mg/kg.

Regarding `Cc1cccc2c1C(N)CC2` (racemic) [Compound 28, (rac)-7-Methyl-1-aminoindan.HCl], in the series with mice [1], the “MICE MES ED50” value was below 100 mg/kg. For the same molecule, in the series on mice [2], the “MICE TD50” value is below 100 mg/kg. The “RATS MES 50” value with rats [3] is reported as below 50 mg/kg. In the series on rats [4], the “RATS TD50” value is recorded as above 50 mg/kg. In addition, the “PROTECTION % OF RESPECTIVE CONTROL” value is recorded as 361 ± 106% in the series on male ICR albino mice (setting [5]) and 941 ± 34% in the series with male ICR albino mice (setting [6]).

Consider `C[C@@H]1Cc2ccccc2[C@H]1N` (racemic) [Compound 39, (rac)-trans-2-Methyl-1-aminoindan.HCl], for which the “MICE MES ED50” value against mice [1] is below 100 mg/kg. Moreover, in the series on mice [2], the “MICE TD50” value is below 100 mg/kg. Also, the “RATS MES 50” value in the series with rats [3] is given as below 50 mg/kg. In the series with rats [4], the “RATS TD50” value is above 50 mg/kg. The “PROTECTION % OF RESPECTIVE CONTROL” value stood at 600 ± 213% in the series on male ICR albino mice (setting [5]) and 798 ± 249% in the series with male ICR albino mice (setting [6]).

With `CC(=O)N[C@H]1CCc2ccccc21` [Compound 19, (S)-N-Acetyl-1-aminoindan], the “PERCENT PROTECTION” value with mongolian gerbils (1.0 mg/kg ip) came to 0%.

Regarding `N[C@H]1CCc2ccccc21` [C, (S)-1-aminoindan], the results for the “PERCENT PROTECTION” value with mongolian gerbils (0.1 mg/kg ip) and in the series with mongolian gerbils (1.0 mg/kg ip) were 0% and 50.0%, respectively.

`C#CCN[C@H]1CCc2ccccc21.Cl` [G, (S)-N-propargyl-1-aminoindan HCl salt]: the “RATS MES 50” value with rats [3] is on record as 57 mg/kg.

On to `CN(C)C1CCc2ccccc21` (racemic) [Compound 15, (rac)-N,N-Dimethyl-1-aminoindan.HCl], for which the “MICE TD50” value with mice [2] is on record as below 100 mg/kg. Besides, the “RATS MES 50” value in the series with rats [3] was determined as 50 mg/kg. Further, the “RATS TD50” value in the series with rats [4] is reported as above 50 mg/kg.

On to `Cc1ccc2c(c1)CCC2N` (racemic) [Compound 38, (rac)-5-Methyl-1-aminoindan.HCl], for which the “MICE MES ED50” value against mice [1] is listed as below 100 mg/kg. In addition, the “MICE TD50” value against mice [2] is reported as below 100 mg/kg. In addition, the “RATS MES 50” value with rats [3] amounted to 50 mg/kg. Also, in the series on rats [4], the “RATS TD50” value is recorded as above 50 mg/kg.

On to `c1ccc(CNC2CCc3ccccc32)cc1` (racemic) [Compound 16, (rac)-N-Benzyl-1-aminoindan.HCl], for which, in the series on mice [1], the “MICE MES ED50” value is below 50 mg/kg. Further, the “RATS MES 50” value in the series on rats [3] was found to be 50 mg/kg. For the same molecule, the “RATS TD50” value in the series with rats [4] is above 50 mg/kg.

Consider `NC1CCc2ccc(F)cc21` (centres unmarked) [I, 6-fluoro-1-aminoindan], for which, in the series with rats [3], the “RATS MES 50” value is on record as below 50 mg/kg.

Take `NC1CCc2ccc(O)cc21` (racemic) [Compound 34, (rac)-6-Hydroxy-1-aminoindan.HCl]: in the series on mice [1], the “activity in the MES model in mice, in words” value is listed as “showed activity” and the “MICE MES ED50” value is given as below 300 mg/kg. Further, the “MICE TD50” value against mice [2] is on record as above 300 mg/kg.

`NC1CCc2cccc(O)c21` (racemic) [Compound 42, (rac)-7-Hydroxy-1-aminoindan.HCl]: the “RATS MES 50” value in the series with rats [3] is listed as below 50 mg/kg. The “RATS TD50” value in the series with rats [4] was above 50 mg/kg. Besides, the “PROTECTION % OF RESPECTIVE CONTROL” value in the series on male ICR albino mice (setting [5]) came out at 179 ± 170%; in the series on male ICR albino mice (setting [6]), 228 ± 119%.

Regarding `COc1ccc2c(c1OC)CCC2N` (racemic) [Compound 31, (rac)-4,5-Dimethoxy-1-aminoindan.HCl], in the series with mice [1], the “activity in the MES model in mice, in words” value is “showed activity” and the “MICE MES ED50” value is below 100 mg/kg. In the series on mice [2], the “MICE TD50” value is recorded as below 100 mg/kg. Besides, the “RATS TD50” value with rats [4] is recorded as above 50 mg/kg.
